# Reference: patent US10525055B2, “Opioid receptor antagonist prodrugs” (Nirsum Laboratories, Inc., priority 2017, dated 2020)
# Legend:
# [1] = biological target: T1, DOR (Homo sapiens, UniProt P41143); experiment: Opioid receptor binding assay, DOR ([3H]-DADLE); details: for %Inh@MaxDose: DOR
# T1 construct: expressed in transfected cells; membranes prepared from them
# [2] = Solubility determination in oil (cottonseed oil, sesame oil); details: Sesame oil; for Solubility by volumetric flask method: Sesame oil: heating 60 °C, obs. 25 °C
# Procedure: A known amount of test substance (˜40 mg) was weighed into the vial, 100 μL of oil was added and heated to 60° C. and then system was slurried to reach equilibrium. […] Extra oil was added into the vial once compound precipitated out and then the system was re-equilibrated at 1000 rpm at room temperature (25° C.). Final concentration was determined by HPLC method as described below in Table 6a and 6b.
# [3] = Dog pharmacokinetic studies, deep intramuscular; format: in vivo, Beagle dogs; details: dog IM, 48 mg/kg, Sesame oil + 1% Benzyl Alcohol
# Procedure: The purpose of this study is to determine the pharmacokinetics of test compounds in plasma, following deep intramuscular administration to Beagle dogs (n=3, unless otherwise specified).
# (§1) The dose formulation (concentration−400 mg base equivalents/ml in sesame oil+1% benzyl alcohol, unless otherwise specified) was administered via deep intramuscularly (unless otherwise specified). The injection vehicle was also dosed via deep intramuscular route (unless otherwise specified) on contralateral site of each animal at study initiation. The animals were sedated with Propofol at 6 mg/kg via IV administration. Following sedation hair was carefully removed from around the injection site and the area gently cleaned. Care will be taken to avoid irritating skin during shaving and cleaning the injection site. Then dogs will be dosed with deep IM administration. At least 2.5 cm depth from the surface into the central aspect of the quadriceps or biceps femoris muscle, by angling the needle toward the femur. If the needle hits the femur, simply draws back slightly and then inject. The dose volume will be determined by the animals' body weight collected on the morning of dosing day. For repeated administration, the injection sites may be rotated to minimize tissue injury.
# Blood samples were collected from a peripheral vessel from restrained, non-sedated animals per sampling time point.
# Approximately 0.8 mL blood will be collected at each time point.
# Each collected blood sample was centrifuged for 4 minutes at 4° C. and 10000 rpm for plasma collection. Plasma was collected and transferred into a pre-labeled PP tube in dry ice at each time point and precipitated immediately using ACN at a ratio of 1:4 (plasma:ACN). Centrifuged again (10 minutes, 12000 rpm) and obtain the supernatant.
# After terminal collection, all supernatant was stored at approximately −80° C. F until bioanalysis.
# LC-MS/MS methods for the quantitative determination of test compound in biological matrix were developed. […] The sample analysis was performed concurrently with a set of calibration standards and two sets of QC samples using the LC-MS/MS method.
# Plasma concentration versus time data was analyzed by non-compartmental approaches using the Phoenix WinNonlin 6.3 software program. Cmax, Tmax, T1/2, AUC(0-t), AUC(0-inf), MRT(0-t), MRT(0-inf) and graphs of plasma concentration versus time profile were prepared.
# [4] = Dog clinical observations after intramuscular dosing; format: in vivo, Beagle dogs
# Procedure: Weight monitoring was done every week.
# as §1
# [5] = Plasma stability assay, rat plasma; format: in vitro ADME; details: 37° C., 10 μM
# Procedure: Plasma stability determination of the test compounds in rat, dog, cynomolgus monkey and human plasma is performed using HPLC-MS. For rat, incubations are carried out in 96-well polypropylene plates in 5 aliquots of 70 μL each (one for each time point). […] Five time points are analyzed (0, 15, 120, 480 and 1440 min). For dog, monkey and human, test compounds (2 μM, final solvent concentration 1%) were also incubated at 37° C. and analyzed at five time points (0, 10, 30, 60 and 120 min). All incubations are performed in duplicates. The samples are analyzed by HPLC-MS. The percentage of parent compound remaining after incubation in plasma is determined.
# [6] = biological target: T2, KOR (Homo sapiens, UniProt P41145); experiment: Opioid receptor binding assay, KOR ([3H]Diprenorphine); details: KOR
# T2 construct: expressed in transfected cells; membranes prepared from them
# [7] = biological target: T3, MOR (Homo sapiens, UniProt P35372); experiment: Opioid receptor binding assay, MOR ([3H]DAMGO); details: MOR
# T3 construct: expressed in transfected cells; membranes prepared from them
# T3 sequence (P35372 whole entry): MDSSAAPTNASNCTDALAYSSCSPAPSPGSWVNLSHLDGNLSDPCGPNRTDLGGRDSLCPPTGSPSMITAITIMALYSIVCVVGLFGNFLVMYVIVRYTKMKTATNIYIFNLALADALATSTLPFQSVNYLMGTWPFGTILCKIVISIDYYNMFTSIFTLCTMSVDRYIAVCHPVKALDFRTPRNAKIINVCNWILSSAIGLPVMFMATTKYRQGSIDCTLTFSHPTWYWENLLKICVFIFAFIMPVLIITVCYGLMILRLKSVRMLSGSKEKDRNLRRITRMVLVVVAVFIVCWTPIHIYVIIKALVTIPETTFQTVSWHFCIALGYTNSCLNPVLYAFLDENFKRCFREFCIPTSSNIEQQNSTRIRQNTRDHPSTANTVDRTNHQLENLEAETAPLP
# T1 sequence (P41143 whole entry): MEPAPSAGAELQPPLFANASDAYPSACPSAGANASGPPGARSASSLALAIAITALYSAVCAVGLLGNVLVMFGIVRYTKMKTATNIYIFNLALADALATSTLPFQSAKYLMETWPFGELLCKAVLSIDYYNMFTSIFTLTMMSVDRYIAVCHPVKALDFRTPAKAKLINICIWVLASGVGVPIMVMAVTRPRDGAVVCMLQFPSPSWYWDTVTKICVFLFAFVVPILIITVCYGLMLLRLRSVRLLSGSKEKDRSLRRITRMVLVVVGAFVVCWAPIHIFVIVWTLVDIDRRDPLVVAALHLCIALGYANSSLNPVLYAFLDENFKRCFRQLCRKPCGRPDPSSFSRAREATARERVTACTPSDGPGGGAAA
# T2 sequence (P41145 whole entry): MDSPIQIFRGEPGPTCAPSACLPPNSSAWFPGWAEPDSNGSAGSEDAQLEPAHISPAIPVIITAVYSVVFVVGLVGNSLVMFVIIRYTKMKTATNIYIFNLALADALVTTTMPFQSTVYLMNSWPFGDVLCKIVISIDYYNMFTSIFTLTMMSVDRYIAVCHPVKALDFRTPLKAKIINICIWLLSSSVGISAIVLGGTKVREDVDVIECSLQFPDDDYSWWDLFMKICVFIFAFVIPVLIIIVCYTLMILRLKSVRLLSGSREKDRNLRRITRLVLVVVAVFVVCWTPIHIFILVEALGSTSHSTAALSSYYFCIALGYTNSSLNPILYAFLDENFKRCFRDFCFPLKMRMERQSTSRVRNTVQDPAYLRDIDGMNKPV
compound,measurement,setting,value
"CCCCCCCCCCCOC(=O)OCOc1ccc2c3c1O[C@H]1C(=O)CC[C@@]4(O)C(C2)N(CC2CC2)CC[C@]314 [Compound 4, (((4aS,7aR,12bS)-3-(cyclopropylmethyl)-4a-hydroxy-7-oxo-2,3,4,4a,5,6,7,7a-octahydro-1H-4,12-methanobenzofuro[3,2-e]isoquinolin-9-yl)oxy)methyl undecyl carbonate]",IC50,[1],> 10 µM
same,%Inh@MaxDose,[1]; MaxDose 10000 nM,43.2%
same,Solubility by volumetric flask method: Sesame oil,[2],>400.4 mg/mL
same,AUC0-inf (ng · h/mL) prodrug,[3],829 ng·h/mL
"C=C1CC[C@@]2(O)C3Cc4ccc(OCOC(=O)OCCCCCCCCCCC)c5c4[C@@]2(CCN3CC2CC2)[C@H]1O5 [Compound 5, (((4aS,7aS,12bS)-3-(cyclopropylmethyl)-4a-hydroxy-7-methylene-2,3,4,4a,5,6,7,7a-octahydro-1H-4,12-methanobenzofuro[3,2-e]isoquinolin-9-yl)oxy)methyl undecyl carbonate]",Solubility by volumetric flask method: Sesame oil,[2],>400.6 mg/mL
same,AUC0-inf (ng · h/mL) prodrug,[3],3869 ng·h/mL
same,Half-life t1/2 (hour) prodrug,[3],70.9 h
same,"BT (clinical observations, R-TA)","[4]; dog D1001, 48 mg/kg, 264 hr",BT:38.6 °C
same,"BT (clinical observations, R-TA)","[4]; dog D1001, 48 mg/kg, 288 hr",BT:38.6 °C
same,"BT (clinical observations, R-TA)","[4]; dog D1001, 48 mg/kg, 312 hr",BT:38.0 °C
same,"BT (clinical observations, R-TA)","[4]; dog D1001, 48 mg/kg, 336 hr",BT:38.4 °C
same,"BT (clinical observations, R-TA)","[4]; dog D1001, 48 mg/kg, 360 hr",BT:38.1 °C
same,"BT (clinical observations, R-TA)","[4]; dog D1001, 48 mg/kg, 432 hr",BT:38.0 °C
same,"BT (clinical observations, R-TA)","[4]; dog D1001, 48 mg/kg, 480 hr",BT:38.0 °C
same,"BT (clinical observations, R-TA)","[4]; dog D1001, 48 mg/kg, 528 hr",BT38.2 °C
same,"BT (clinical observations, R-TA)","[4]; dog D1001, 48 mg/kg, 552 hr",BT:38.4 °C
same,"BT (clinical observations, R-TA)","[4]; dog D1001, 48 mg/kg, 576 hr",BT:38.4 °C
same,"BT (clinical observations, R-TA)","[4]; dog D1001, 48 mg/kg, 600 hr",BT:38.3 °C
same,"BT (clinical observations, R-TA)","[4]; dog D1001, 48 mg/kg, 624 hr",BT:38.6 °C
same,"BT (clinical observations, R-TA)","[4]; dog D1001, 48 mg/kg, 648 hr",BT:38.3 °C
same,"BT (clinical observations, R-TA)","[4]; dog D1001, 48 mg/kg, 672 hr",BT:38.3 °C
same,"BT (clinical observations, R-TA)","[4]; dog D1001, 48 mg/kg, […]",BT:38.7 °C
same,"BT (clinical observations, R-TA)","[4]; dog D1002, 48 mg/kg, 264 hr",BT:39.5 °C
same,"BT (clinical observations, R-TA)","[4]; dog D1002, 48 mg/kg, 288 hr",BT:39.5 °C
same,"BT (clinical observations, R-TA)","[4]; dog D1002, 48 mg/kg, 312 hr",BT:38.5 °C
same,"BT (clinical observations, R-TA)","[4]; dog D1002, 48 mg/kg, 336 hr",BT:38.7 °C
same,"BT (clinical observations, R-TA)","[4]; dog D1002, 48 mg/kg, 360 hr",BT:39.1 °C
same,"BT (clinical observations, R-TA)","[4]; dog D1002, 48 mg/kg, 432 hr",BT:38.9 °C
same,"BT (clinical observations, R-TA)","[4]; dog D1002, 48 mg/kg, 456 hr",BT:38.9 °C
same,"BT (clinical observations, R-TA)","[4]; dog D1002, 48 mg/kg, 480 hr",BT:39.2 °C
same,"BT (clinical observations, R-TA)","[4]; dog D1002, 48 mg/kg, 504 hr",BT:38.7 °C
same,"BT (clinical observations, R-TA)","[4]; dog D1002, 48 mg/kg, 528 hr",BT:37.9 °C
same,"BT (clinical observations, R-TA)","[4]; dog D1002, 48 mg/kg, 552 hr",BT:39.2 °C
same,"BT (clinical observations, R-TA)","[4]; dog D1002, 48 mg/kg, 576 hr",BT:39.0 °C
same,"BT (clinical observations, R-TA)","[4]; dog D1002, 48 mg/kg, 600 hr",BT:38.6 °C
same,"BT (clinical observations, R-TA)","[4]; dog D1002, 48 mg/kg, 624 hr",BT:38.9 °C
same,"BT (clinical observations, R-TA)","[4]; dog D1002, 48 mg/kg, 648 hr",BT:38.5 °C
same,"BT (clinical observations, R-TA)","[4]; dog D1002, 48 mg/kg, 672 hr",BT:39.3 °C
"C=C1CC[C@@]2(O)C3Cc4ccc(OCOC(=O)OCCCCCCCCCCCCCC)c5c4[C@@]2(CCN3CC2CC2)[C@H]1O5 [Compound 25, (((4aS,7aS,12bS)-3-(cyclopropylmethyl)-4a-hydroxy-7-methylene-2,3,4,4a,5,6,7,7a-octahydro-1H-4,12-methanobenzofuro[3,2-e]isoquinolin-9-yl)oxy)methyl tetradecyl carbonate]","% remaining at time point in minutes, 0 min",[5]; 0 min,100%
same,"% remaining at time point in minutes, 15 min",[5]; 15 min,82.6%
same,"% remaining at time point in minutes, 120 min",[5]; 120 min,69.3%
same,"% remaining at time point in minutes, 480 min",[5]; 480 min,62.2%
same,"% remaining at time point in minutes, 1440 min",[5]; 1440 min,51.7%
same,%Inh@MaxDose,[1]; MaxDose 10000 nM,62%
same,%Inh@MaxDose,[6]; MaxDose 10000 nM,76.9%
same,%Inh@MaxDose,[7]; MaxDose 10000 nM,87.3%
"C=C1CC[C@@]2(O)C3Cc4ccc(OC(=O)OCCCCCCCCCCCCCCC)c5c4[C@@]2(CCN3CC2CC2)[C@H]1O5 [Compound 32, (4aS,7aS,12bS)-3-(cyclopropylmethyl)-4a-hydroxy-7-methylene-2,3,4,4a,5,6,7,7a-octahydro-1H-4,12-methanobenzofuro[3,2-e]isoquinolin-9-yl pentadecyl carbonate]",%Inh@MaxDose,[6]; MaxDose 10000 nM,80.1%
same,%Inh@MaxDose,[7]; MaxDose 10000 nM,75.9%
same,Approximate Solubility (mg/mL) in Excipient: Sesame oil,"[2]; heating temp. 60 °C, obs. temp. 25 °C",>410 mg/mL
"C=C1CC[C@@]2(O)C3Cc4ccc(OCOC(=O)OCCCCCCCCCCCCCCCC)c5c4[C@@]2(CCN3CC2CC2)[C@H]1O5 [Compound 34, (((4aS,7aS,12bS)-3-(cyclopropylmethyl)-4a-hydroxy-7-methylene-2,3,4,4a,5,6,7,7a-octahydro-1H-4,12-methanobenzofuro[3,2-e]isoquinolin-9-yl)oxy)methyl hexadecyl carbonate]",%Inh@MaxDose,[1]; MaxDose 10000 nM,22.7%
"C=C1CC[C@@]2(O)C3Cc4ccc(OCOC(=O)CCCCCCCCCCC)c5c4[C@@]2(CCN3CC2CC2)[C@H]1O5 [Compound 44, (((4aS,7aS,12bS)-3-(cyclopropylmethyl)-4a-hydroxy-7-methylene-2,3,4,4a,5,6,7,7a-octahydro-1H-4,12-methanobenzofuro[3,2-e]isoquinolin-9-yl)oxy)methyl dodecanoate]",%Inh@MaxDose,[1]; MaxDose 10000 nM,79.1%
same,%Inh@MaxDose,[6]; MaxDose 10000 nM,99.2%
same,%Inh@MaxDose,[7]; MaxDose 10000 nM,83.1%
"C=C1CC[C@@]2(O)C3Cc4ccc(OCOC(=O)CCCCCCCCCCCCCCC)c5c4[C@@]2(CCN3CC2CC2)[C@H]1O5 [Compound 46, (((4aS,7aS,12bS)-3-(cyclopropylmethyl)-4a-hydroxy-7-methylene-2,3,4,4a,5,6,7,7a-octahydro-1H-4,12-methanobenzofuro[3,2-e]isoquinolin-9-yl)oxy)methyl hexadecanoate]",%Inh@MaxDose,[1]; MaxDose 10000 nM,72.3%
same,%Inh@MaxDose,[6]; MaxDose 10000 nM,101.8%
same,%Inh@MaxDose,[7]; MaxDose 10000 nM,102.3%
"Oc1ccc2c3c1O[C@H]1c4[nH]c5ccccc5c4C[C@@]4(O)[C@@H](C2)N(CC2CC2)CC[C@]314 [Naltrindole, reference compound]",%Inh@MaxDose,[1]; MaxDose 100 nM,98.8%
"C=C1CC[C@@]2(O)[C@H]3Cc4ccc(O)c5c4[C@@]2(CCN3CC2CC2)[C@H]1O5 [nalmefene, 17-cyclopropylmethyl-4,5α-epoxy-6-methylenemorphinan-3,14-diol, reference compound]",%Inh@MaxDose,[1]; MaxDose 1000 nM,94.5%
same,%Inh@MaxDose,[6]; MaxDose 1000 nM,103%
same,%Inh@MaxDose,[7]; MaxDose 1000 nM,103.5%
